# Data from US20250099428A1, “USE OF BENZISOSELENAZOLE COMPOUND IN PREPERATION OF DRUG FOR TREATMENT OF SPINAGLIOMA” (Beijing Neurosurgical Institute, priority 2022, published 2025).
# “Also recorded” adds a separate entry of the source.
# Key:
# Spinaglioma cells SP0001 = test: CCK8 cell proliferation inhibition, spinaglioma cells SP0001; type: cell-based, human; conditions: for growth inhibition / killing effect on SP0001 cells: CCK8, cytarabine 24, 48, 96 hours, BS 24, 48 hours
# Experimental: (§1) Spinaglioma cells SP0001 in a logarithmic growth phase were digested with trypsin and centrifuged to obtain a cell precipitate, and cells were counted after being re-suspended in a complete medium. Based on the count results, the cells SP0001 were inoculated into a 96-well cell culture plate with 5000 cells per well and cultured in a 37° C. incubator in a 5% CO2 environment. After 24 hours, the cells were treated with drugs. Atemozolomide (TMZ) compound and a benzisoselenazole compound (BS) of the present invention were respectively dissolved in DMSO to prepare a stock solution, which was then dissolved with the complete medium to different drug concentrations. The gradient concentrations of TMZ were 0, 100, 150, 200, 250, 300, 350, and 400 μM. The gradient concentrations of BS were 0, 1, 2, 3, 4, 5, 6, 7, and 8 μM. The medium was removed from the wells, and the corresponding drug solution of each concentration was added with 100 μL per well.
# […] When testing, a CCK8 working solution was prepared in advance, namely, an appropriate volume of working solution was prepared based on 100 μL serum-free medium and 10 μL CCK8 per well, and the working solution was placed in dark. The well plate was taken out of the incubator, the cell medium was removed from the wells to be tested, 110 μL of CCK8 working solution was added to each well, the incubation was continued for 2 hours, then the absorbance at 450 nm was measured on an enzyme-linked immunosorbent assay (ELISA) reader, an inhibition rate corresponding to each concentration was calculated, and IC50 values at corresponding time were calculated using GraphPad 7.0 software.
# This example measured the killing effects of a cytarabine compound and the BS compound of the present invention on two types of spinaglioma cell lines SCA-S01 and SP0001, using the same method as Example 1.
# SCA-S01 cells = test: CCK8 cell proliferation inhibition, spinaglioma cells SCA-S01; type: cell-based, human; conditions: cytarabine 24, 48, 96 hours, BS 24, 48 hours
# Experimental: as §1, with “The medium was removed from the wells, and the corresponding drug solution of each concentration was added with 100 μL per well.” left out
# The well plate was put back into the incubator, and cell proliferation was tested after 24 and 48 hours, respectively. […] The well plate was taken out of the incubator, the cell medium was removed from the wells to be tested, 110 μL of CCK8 working solution was added to each well, the incubation was continued for 2 hours, then the absorbance at 450 nm was measured on an enzyme-linked immunosorbent assay (ELISA) reader, an inhibition rate corresponding to each concentration was calculated, and IC50 values at corresponding time were calculated using GraphPad 7.0 software. […]
# [1] = tested on: SP0001 human-derived spinaglioma tumor; test: SP0001 tumor-bearing NPG mouse model, tumor growth inhibition; type: in vivo, NPG immunodeficient mice; conditions: for tumor volume inhibition rate: end of experiment; for tumor size at end of experiment: intragastric once a day, 24 days
# Experimental: (§2) First, a tumor-bearing mouse model was built. Female NPG immunodeficient mice (6-8 weeks, starting weight 16-21 g, purchased from Beijing Vitalstar Biotechnology Co., Ltd.) were used for experimental research. The animals were raised and operated under sterile conditions, and all animal experiments were conducted in accordance with the international guidelines for animal experimentation. SP0001 human-derived spinaglioma tumor blocks (2-3 mm^3) were prepared and inoculated subcutaneously to the right ventrodorsal side of each NPG mouse. After inoculation, the status of the mice was observed, and the size of the tumor was measured. The animals with a tumor volume of 40 mm^3 were selected for experiment, and the animals that had too large tumor and no tumor were not selected. A total of 40 suitable tumor-bearing animals were selected for the experiment and divided into 5 experimental groups, with 8 mice in each group. The first day of administration was recorded as D1, the second day of administration was recorded as D2, and so on. All the animals were administered intragastrically once a day for 24 consecutive days. […] In the experiment, the physiological saline group was used as a negative control, and the temozolomide (TMZ) treatment group was used as a positive control.
# [2] = tested on: primary spinaglioma cell line SP0001; test: Live and dead cell fluorescence staining of SP0001 cells; type: cell-based, human; conditions: 6 μM, treated 48 hours
# Experimental: Fluorescence staining was performed using live and dead cell staining technology on the primary spinaglioma cell line SP0001 treated with the benzisoselenazole compound for 48 hours.
# [3] = Body weight and toxicity in tumor-bearing NPG mice; type: in vivo, NPG immunodeficient mice; conditions: for toxic and side effects on NPG mice: intragastric once a day, 24 days, BS: BSM and BSH groups, TMZ 30 mg/Kg
# Experimental: as §2
# During the experiment, no clinical abnormal symptoms or animal deaths due to drug toxicity were observed.
# The histogram of the weight change rate of NPG mice after administration was shown in FIG. 9 (BSL, BSM, and BSH represent a low dose group 90 mg/Kg, a medium dose group 180 mg/Kg, and a high dose group 360 mg/Kg of the drug BS respectively).
# [4] = SP0001 cells, CCK8, 24 and 48 hours
smiles,measurement,setting,value
"Nc1ccn([C@@H]2O[C@H](CO)[C@@H](O)[C@@H]2O)c(=O)n1 [cytarabine, reference compound]",growth inhibition / killing effect on SP0001 cells,Spinaglioma cells SP0001,cannot significantly inhibit the growth
same,killing effect on SCA-S01 cells,SCA-S01 cells,weak killing effect
O=c1c2ccccc2[se]n1CCCCn1[se]c2ccccc2c1=O [BS],growth inhibition / killing effect on SP0001 cells,Spinaglioma cells SP0001,significant killing effect
same,inhibitory effect on proliferation of patient-derived spinaglioma cell line,Spinaglioma cells SP0001; [4],obvious inhibitory effect
same,sensitivity of patient-derived spinaglioma to the compound,Spinaglioma cells SP0001; [4],sensitive
same,tumor volume inhibition rate,[1]; BS high dose 360 mg/Kg,45.99%
same,tumor volume inhibition rate,[1]; BS low dose 90 mg/Kg,14.01%
same,tumor volume inhibition rate,[1]; BS medium dose 180 mg/Kg,25.89%
same,tumor size at end of experiment,[1]; BSH high dose 360 mg/Kg,82.56±41.40 mm^3
same,tumor size at end of experiment,[1]; BSL low dose 90 mg/Kg,131.44±39.81 mm^3
same,tumor size at end of experiment,[1]; BSM medium dose 180 mg/Kg,113.29±57.21 mm^3
same,killing effect on SCA-S01 cells,SCA-S01 cells,strong killing effects
same,killing effect,[2],90%
same,weight change during administration,[3]; BSM and BSH groups (180 and 360 mg/Kg),did not show any weight loss; also recorded: no significant change in body weight
same,toxic and side effects on NPG mice,[3],no significant toxic and side effects
"Cn1nnc2c(C(N)=O)ncn2c1=O [TMZ, temozolomide, reference compound]",tumor volume inhibition rate,[1]; TMZ group 30 mg/Kg,82.59%
same,tumor size at end of experiment,[1]; TMZ group 30 mg/Kg,26.61±10.30 mm^3
same,weight loss compared to the Control group (decrease),[3]; TMZ group 30 mg/Kg,over 20%
same,toxic and side effects on NPG mice,[3],significant toxic and side effects; also recorded: obvious toxicity
